Experimental findings from US10294228B2, “Breathing control modulating compounds, and methods of making and using same” (NEURAD LTD., priority 2015, dated 2019) are described below.

This test relates to anesthetized rats. Description: Anesthetized rat spirometry screening assay (ventilatory activity, minute volume). In kind it is in vivo. The conditions noted are these: increase in minute volume (VE); for change in vivo at 0.3 mg/kg: 0.3 mg/kg IV bolus, read-out: VE % Inc @ 0.3 mg/kg IV; for change in vivo at 3 mg/kg: 3.0 mg/kg IV bolus, read-out: VE % Inc @ 3.0 mg/kg IV. As to the method:
Anesthetized rats provide a quick method of screening compounds for respiratory and cardiovascular activity.
Rats were initially anesthetized with 3% isoflurane (inhaled) and femoral artery and vein cannulas were surgically inserted. Once cannulated, the rats were transitioned to urethane anesthesia (1.5 g/kg; i.v.) and a tracheal cut-down was performed. After placing the tracheal cannula, it was connected to a pneumotachometer to record respiratory airflow from which respiratory rate (RR), tidal volume (VT), and their product minute volume (MV, also termed VE) were derived. After the surgical preparation was complete, animals were allowed to stabilize for 30 minutes while respiratory rate, tidal volume, minute volume, blood pressure and heart rate were recorded continuously. Arterial blood gases (ABG) were obtained from arterial blood collected from the femoral artery. ABG measurements were taken before and 6 minutes after vehicle and each dose of compound administered. Compounds being screened were administered via bolus injections through the venous cannula followed by a saline flush (total time of administration is approximately 30 seconds), and the animal was monitored for at least 6 minutes for changes in cardiovascular efforts. Compounds were prepared in formulations identified to ensure optimal solubility. As such, vehicle controls were matched for the formulation of each compound tested. Dosing of the compounds being screened was conducted at 0.1 and/or 0.3 mg/kg and/or 3 mg/kg The next dose was not administered until all cardiovascular and respiratory measures had returned to baseline levels. The positive control compounds used were N-[4,6-di-(n-propylamino)-[1,3,5]triazin-2-yl]-N,O-dimethyl-hydroxylamine or N-[2,6-di-(n-propylamino)-[1,3]pyrimidin-4-yl]-N,O-dimethyl-hydroxylamine (both administered at the end of each screening experiment (0.3 mg/kg dose) to validate the experiment and also to serve as a measure with which the compound being screened could be compared.
Data were analyzed by collecting cardiovascular and respiratory data in 30 second averages (BINs). Data were plotted 2 minutes before challenge and then 6 minutes after challenge.

Each structure is given as a SMILES string. Where a name gives a salt, the structure may show the parent alone.

In the case of `CCCNc1nc(NC)nc2c(NCC(O)CC)nc(NC)nc12` (stereo not drawn) [Compound 24a, 1-(2,6-Bis-methylamino-8-propylamino-pyrimido[5,4-d]pyrimidin-4-ylamino)-butan-2-ol Hydrochloride], the change in vivo at 0.3 mg/kg was determined as 100% and the change in vivo at 3 mg/kg was found to be 121%.
For `CCCNc1nc(NC)c2nc(NCC(O)CO)nc(NC)c2n1` (stereo not drawn) [Compound 121, 3-(4,8-Bis-methylamino-6-propylamino-pyrimido[5,4-d]pyrimidin-2-ylamino)-propane-1,2-diol], in that order: 0% and 38%.
For the molecule `CCNc1nc(NCC(C)(C)O)c2nc(NCC)nc(NCC(F)F)c2n1` [Compound 47a, 1-[8-(2,2-difluoro-ethylamino)-2,6-bis-ethylamino-pyrimido[5,4-d]pyrimidin-4-ylamino]-2-methyl-propan-2-ol hydrochloride], the change in vivo at 0.3 mg/kg was found to be 31%.
On to `CCCNc1nc(NC)c2nc(NCC(C)(C)O)nc(NC)c2n1` [Compound 94, 1-(4,8-Bis-methylamino-6-propylamino-pyrimido[5,4-d]pyrimidin-2-ylamino)-2-methyl-propan-2-ol], for which the change in vivo at 0.3 mg/kg was determined as 18% and the change in vivo at 3 mg/kg is 130%.
Turning to `CC[C@@H](C)Nc1nc(NC)c2nc(NC[C@H](C)O)nc(NC)c2n1` [Compound 101, (S)-1-[6-((R)-sec-Butylamino)-4,8-bis-methylamino-pyrimido[5,4-d]pyrimidin-2-ylamino]-propan-2-ol], the change in vivo at 0.3 mg/kg is 20% and the change in vivo at 3 mg/kg was 129%.
The corresponding values for `CCNc1nc(NCC)c2nc(NC[C@H](C)O)nc(NCC)c2n1` [Compound 165, (S)-1-(4,6,8-Tris-ethylamino-pyrimido[5,4-d]pyrimidin-2-ylamino)-propan-2-ol] are 66% and 101%.
With `CCCNc1nc(NC)c2nc(NCCO)nc(NC)c2n1` [Compound 91, 2-(4,8-Bis-methylamino-6-propylamino-pyrimido[5,4-d]pyrimidin-2-ylamino)-ethanol], the change in vivo at 0.3 mg/kg came out at 16%.
`CCCNc1nc(NC)nc2c(N[C@H]3CCCC[C@@H]3O)nc(NC)nc12` [Compound 83, (1S,2S)-2-(2,6-Bis-methylamino-8-propylamino-pyrimido[5,4-d]pyrimidin-4-ylamino)-cyclohexanol]: the change in vivo at 0.3 mg/kg was 176% and the change in vivo at 3 mg/kg worked out at 153%.
For `CC[C@H](C)Nc1nc(NC)c2nc(NCC(C)(C)O)nc(NC)c2n1` [Compound 103, 1-[6-((S)-sec-Butylamino)-4,8-bis-methylamino-pyrimido[5,4-d]-pyrimidin-2-ylamino]-2-methyl-propan-2-ol], in that order: 5% and 99%.
For the molecule `CNc1nc(NCC2CC2)nc2c(NC)nc(NCCO)nc12` [Compound 90, 2-[6-(Cyclopropylmethyl-amino)-4,8-bis-methylamino-pyrimido[5,4-d]pyrimidin-2-ylamino]-ethanol], the change in vivo at 0.3 mg/kg was determined as 26%.
The same measure, in the same setting: the same measure for `CNc1nc(NCC(C)(C)O)c2nc(NC)nc(NCC(F)F)c2n1` [Compound 36a, 1-[8-(2,2-Difluoro-ethylamino)-2,6-bis-methylamino-pyrimido[5,4-d]pyrimidin-4-ylamino]-2-methyl-propan-2-ol Hydrochloride]: 34%.
Turning to `CCNc1nc(NC[C@H](C)O)nc2c(NCC)nc(N)nc12` [Compound 172, (S)-1-(6-Amino-4,8-bis-ethylamino-pyrimido[5,4-d]-pyrimidin-2-ylamino)-propan-2-ol], the change in vivo at 0.3 mg/kg came out at 5% and the change in vivo at 3 mg/kg turned out to be 155%.
For `CCCNc1nc(NC)c2nc(N[C@H]3CCC[C@@H]3O)nc(NC)c2n1` [Compound 139, (1S,2S)-2-(4,8-Bis-methylamino-6-propylamino-pyrimido[5,4-d]pyrimidin-2-ylamino)-cyclopentanol], in that order: 90% and 114%.
On to `C#CCNc1nc(NC)nc2c(NCCO)nc(NC)nc12` [Compound 58a, 2-(2,6-Bis-methylamino-8-prop-2-ynylamino-pyrimido[5,4-d]pyrimidin-4-ylamino)-ethanol Hydrochloride], for which the change in vivo at 0.3 mg/kg turned out to be 10%.
For `CC[C@@H](C)Nc1nc(NC)nc2c(NCC(C)(C)O)nc(NC)nc12` [Compound 40a, 1-[8-((R)-sec-Butylamino)-2,6-bis-methylamino-pyrimido[5,4-d]-pyrimidin-4-ylamino]-2-methyl-propan-2-ol Hydrochloride], the change in vivo at 0.3 mg/kg amounted to 79% and the change in vivo at 3 mg/kg was determined as 158%.
As for `CCCNc1nc(NC)nc2c(NCC(O)C(F)(F)F)nc(NC)nc12` (stereo not drawn) [Compound 22a, 3-(2,6-Bis-methylamino-8-propylamino-pyrimido[5,4-d]pyrimidin-4-ylamino)-1,1,1-trifluoro-propan-2-ol Hydrochloride], the change in vivo at 0.3 mg/kg is 102%.
For `CNc1nc(NCC(C)(C)O)nc2c(NC)nc(NCC(F)F)nc12` [Compound 107, 1-[6-(2,2-Difluoro-ethylamino)-4,8-bis-methylamino-pyrimido[5,4-d]pyrimidin-2-ylamino]-2-methyl-propan-2-ol], the change in vivo at 0.3 mg/kg was 14% and the change in vivo at 3 mg/kg was 95%.
Turning to `CC[C@@H](C)Nc1nc(NC)c2nc(NCC(C)(C)O)nc(NC)c2n1` [Compound 99, 1-[6-((R)-sec-Butylamino)-4,8-bis-methylamino-pyrimido[5,4-d]-pyrimidin-2-ylamino]-2-methyl-propan-2-ol], the change in vivo at 0.3 mg/kg came to 25% and the change in vivo at 3 mg/kg is 61%.
The corresponding values for `CNc1nc(NC[C@@H](C)O)nc2c(NC)nc(NCC3CC3)nc12` [Compound 144, (R)-1-[6-(Cyclopropylmethyl-amino)-4,8-bis-methylamino-pyrimido[5,4-d]pyrimidin-2-ylamino]-propan-2-ol] are 14% and 98%.
With `CCC(O)CNc1nc(NC)c2nc(NCC3CC3)nc(NC)c2n1` (stereo not drawn) [Compound 146, 1-[6-(Cyclopropylmethyl-amino)-4,8-bis-methylamino-pyrimido[5,4-d]pyrimidin-2-ylamino]-butan-2-ol], the change in vivo at 0.3 mg/kg was found to be 9% and the change in vivo at 3 mg/kg stood at 121%.
Take `CCCNc1nc(NC)c2nc(NCC(C)O)nc(NC)c2n1` (stereo not drawn) [Compound 95, 1-(4,8-Bis-methylamino-6-propylamino-pyrimido[5,4-d]-pyrimidin-2-ylamino)-propan-2-ol]: the change in vivo at 0.3 mg/kg amounted to 138%.
Take `CCCNc1nc(NCC)c2nc(NC[C@@H](C)O)nc(NCC)c2n1` [Compound 169, (R)-1-(4,8-Bis-ethylamino-6-propylamino-pyrimido[5,4-d]-pyrimidin-2-ylamino)-propan-2-ol]: the change in vivo at 0.3 mg/kg was 113% and the change in vivo at 3 mg/kg stood at 142%.
Regarding `CNc1nc(NCC2CC2)c2nc(NC)nc(NCCO)c2n1` [Compound 54a, 2-[8-(Cyclopropylmethyl-amino)-2,6-bis-methylamino-pyrimido[5,4-d]pyrimidin-4-ylamino]-ethanol Hydrochloride], the change in vivo at 0.3 mg/kg is 165%.
As for `CNc1nc(NCC(C)(C)O)c2nc(NC)nc(NC)c2n1` [Compound 48a, 2-Methyl-1-(2,6,8-tris-methylamino-pyrimido[5,4-d]-pyrimidin-4-ylamino)-propan-2-ol Hydrochloride], the change in vivo at 0.3 mg/kg turned out to be 20% and the change in vivo at 3 mg/kg was 78%.
For `CCCNc1nc(NC)c2nc(N[C@@H]3CCC[C@H]3O)nc(NC)c2n1` [Compound 141, (1R,2R)-2-(4,8-Bis-methylamino-6-propylamino-pyrimido[5,4-d]pyrimidin-2-ylamino)-cyclopentanol], in that order: 71% and 146%.
For the molecule `C=C(C)CNc1nc(NCC)c2nc(NC[C@@H](C)O)nc(NCC)c2n1` [Compound 174, (R)-1-[4,8-Bis-ethylamino-6-(2-methyl-allylamino)-pyrimido[5,4-d]-pyrimidin-2-ylamino]-propan-2-ol], the change in vivo at 0.3 mg/kg was 72% and the change in vivo at 3 mg/kg turned out to be 114%.
The corresponding values for `CCCNc1nc(NC)c2nc(N[C@@H]3c4ccccc4C[C@H]3O)nc(NC)c2n1` [Compound 129, (1R,2R)-1-(4,8-Bis-methylamino-6-propylamino-pyrimido[5,4-d]-pyrimidin-2-ylamino)-indan-2-ol] are 2% and 68%.
For `CNc1nc(NCC(F)F)c2nc(NC)nc(NCCO)c2n1` [Compound 60a, 2-[8-(2,2-Difluoro-ethylamino)-2,6-bis-methylamino-pyrimido[5,4-d]-pyrimidin-4-ylamino]-ethanol Hydrochloride], in that order: 15% and 119%.
